Values of other authors as cited in article PMC10364322, “Evaluation of chronic drug-induced electrophysiological and cytotoxic effects using human-induced pluripotent stem cell-derived cardiomyocytes (hiPSC-CMs)” (Frontiers in Pharmacology, 2023).

Tests used:
[1] = test system: human embryonic stem cell-derived cardiomyocytes; design: method as in Hihara et al., 2014; details: 10 µM; 24 h-treatment; 4% in vehicle-treated wells; ref Hihara et al., 2014; cited from earlier work
cynomolgus monkeys = test system: cynomolgus monkeys; design: method as in Gill et al., 2017; details: ref Gill et al., 2017; cited from earlier work
patients = test system: patients; design: method as in Wenningmann et al., 2019; details: doses above 700 mg/m^2; ref Wenningmann et al., 2019; cited from earlier work

In the case of N=C(N)c1ccc(OCCCCCOc2ccc(C(=N)N)cc2)cc1 [Pentamidine], the FPDc prolongation [1] is listed as 62%.

In the case of COc1nc(N)nc2c1ncn2[C@@H]1O[C@H](COP(=O)(N[C@@H](C)C(=O)OCC(C)(C)C)Oc2cccc3ccccc23)[C@@H](O)[C@@]1(C)O (stereo partly drawn) [BMS-986094], the “estimated dose that caused cardiotoxicity” value (cynomolgus monkeys) is given as 3 µM.

In the case of COc1cccc2c1C(=O)c1c(O)c3c(c(O)c1C2=O)C[C@@](O)(C(=O)CO)C[C@@H]3O[C@H]1C[C@H](N)[C@H](O)[C@H](C)O1 [Doxorubicin], the “congestive heart failure, share of patients” value (patients) is listed as “up to 48%”.
